“Also recorded” adds a separate entry of the source.
What was measured:
[1] = system: granule cells of the dentate gyrus; assay: GABAergic activity (sIPSCs), whole-cell patch-clamp in acute brain slices; assay type: cell-based, mouse; conditions: for GABAergic activity (in words): Sortilin −/− mouse brain slices
Experimental: FIG. 8: Neuronal GABA activity is increased in Sortilin and SorCS2 −/− mice, and can be rescued by BDNF. A, model describing how dentate gyrus granule cells are under powerful inhibitory control by GABAergic basket cells. The basket cell excitability is in turn depressed by BDNF released from the granule cells (Holm et al. Submitted, 2008) B, the GABAergic activity was assessed by electrophysiological recordings from single neurons in an in vitro mouse brain slice preparation (P16-P20). In each experimental condition, the frequency of spontaneous inhibitory postsynaptic currents (sIPSCs) was measured in Hz. In control mice (wildtype, WT) the GABAergic activity was 2.96±0.53 Hz (n=33 cells). In Sortilin −/− (Sortilin KO) mice, this activity increased to 6.15±0.80 Hz (n=25 cells). In rescue experiments, exogenous BDNF (20 ng/ml) reversed the GABA activity of Sortilin KO mice back to WT levels, reaching 2.66±1.4 Hz (n=3 cells). For comparison, the GABAergic activity in SorCS2 −/− (SorCS2 KO) mice was 5.68±0.7 Hz (n=6), highlighting the importance of Vps10p proteins in these inhibitory cell functions. Error bars indicate S.E.M.
3-4 week wildtype and Sortilin deficient mice were examined for neurophysiological in vitro correlates of anxiety/depression like behavior. In fresh 350 μm thick brain slices, inhibitory GABAergic synaptic input to hippocampal granule cells were quantified in living tissues. Electrophysiological patch-clamp recordings were carried out from acute brain slices from WT, Sortilin and Sorcs2 knockout (KO) mice. Following deep isoflurane anesthesia, male mice were sacrifized and the brain was carefully dissected out and cooled. 350 um thick brain slices were cut on a Vibratome 3000 Plus, and the tissue rested in O2/CO2 bubbled Ringer solution for at least 1 hour before experimentation (Drasbek and Jensen 2006). Whole-cell patch-clamp recordings were carried out at 33° C. from the soma of identified granule cells of the dentate gyrus (Jensen and Mody 2001). Under conditions of blocked glutamatergic excitation, GABAergic activity was apparent as spontaneous inhibitory postsynaptic currents (sIPSCs) that could be blocked by the GABAA receptor antagonist SR95531 (100 μM). For each cell, the frequency of sIPSCs was analyzed and frequencies were pooled within each experimental group. In rescue experiments, BDNF (brain-derived neurotrophic factor, 20 ng/ml) was perfused to the brain slice for at least 5 min and the GABAergic activity was assessed. […] Subsequently, the pathophysiological neuronal activity was restored in Sortilin deficient mouse brain slices by administering exogenous brain-derived neurotrophic factor (BDNF 20 ng/ml) to the tissue bathing solution (FIG. 8B).

[2] = system: Sortilin −/− hippocampal CA1 synapses; assay: NMDA receptor-dependent LTD in Sortilin −/− hippocampal slices (f-EPSP recording); assay type: cell-based, mouse; conditions: 40 ng/ml for at least 1 h before recording and throughout, LFS 1 Hz, 15 min
Experimental: FIG. 3: Impaired NMDA receptor-dependent LTD in Sortilin −/− and SorCS1 −/− mice. A, lack of LTD in sortilin −/− hippocampal CA1 synapses by the application of LFS (1 Hz, 15 min) to the Schaffer collaterals. In wt hippocampal CA1 synapses a LFS induces synaptic depression. B, rescue of NMDA receptor-dependent LTD in Sortilin −/− hippocampal CA1 synapses by cleavage-resistant proBDNF. […] LFS (1 Hz, 15 min) was applied to the Schaffer collaterals. In Sortilin −/− hippocampal slices incubated with control vehicle the LTD was still impaired. C, a similar experiment showing rescue of NMDA receptor-dependent LTD in sortilin −/− hippocampal CA1 synapses by 40 ng/ml purified soluble Sortilin. D, a similar experiment showing lack of LTD in SorCS1 −/− hippocampal CA1 synapses. […]
SorCS2 −/− mice were backcrossed onto a C57BL/6 background for more than ten generations and wild type C57BL/6 mice were used as control. […] After a recovery period of at least two h, the slices were moved to an interface chamber exposed to a humidified atmosphere of 95% O2 and 5% CO2 and we recorded field Exitatory Post-Synaptic Potentials (f-EPSP) using an Axoclamp-2B amplifier (Axon Instruments) with an artificial cerebral spinal fluid (ACSF; in mM: 126 NaCl, 2.5 KCl, 1.25 NaH2PO4, 2.5 CaCl2, 1.3 MgCl2, 10 D-glucose)-filled glass microelectrode (10-15 MΩ) positioned in the stratum radiatum of hippocampal area CA1. […]

[3] = system: patient suffering from a mental and behavioural disorder; assay: Passive delivery device implanted into the brain of a patient with a mental and behavioural disorder (Examples 18, 19); assay type: in vivo, human; conditions: device for passive delivery surgically implanted into the brain
From the text: The soluble domain of human Sortilin is expressed recombinantly at a large scale in a mammalian cell culture and is subsequently purified by for example immunoaffinity chromatography. A device for passive delivery containing purified soluble Sortilin is surgically implanted into the brain of a patient suffering from a mental and behavioural disorder. Good effect is obtained and the patient is set on lifelong treatment.
The soluble domain of human Sortilin is expressed recombinantly at a large scale in a mammalian cell culture and is subsequently purified by for example immunoaffinity chromatography. Similarly, proBDNF is expressed and purified at a large scale. Soluble Sortilin and proBDNF is incubated together to form a preformed Sortilin:proBDNF complex. A device for passive delivery containing purified preformed Sortilin:proBDNF is surgically implanted into the brain of a patient suffering from a mental and behavioural disorder. Good effect is obtained and the patient is set on lifelong treatment.

**Q.** With Br.COc1ccc(-c2ccc(=N)n(CCCC(=O)O)n2)cc1 [SR95531, reference compound] as the molecule, how does the “spontaneous inhibitory postsynaptic currents (sIPSCs)” value ([1]; 100 μM, blocked glutamatergic excitation) read?
**A.** blocked

**Q.** For “soluble Sortilin: purified soluble Sortilin, the luminal (Vps10p-domain) part of the receptor”, which “NMDA receptor-dependent LTD” value [2] is on record?
**A.** rescued

**Q.** And the “NMDA receptor-dependent LTD” value ([2]; listed as recombinant soluble Sortilin)?
**A.** rescued

**Q.** What about the “effect of treatment in the patient” value [3] of the same molecule?
**A.** Good effect

B1: mature BDNF: mature brain-derived neurotrophic factor (protein)
chain: HSDPARRGELSVCDSISEWVTAADKKTAVDMSGGTVTVLEKVPVSKGQLKQYFYETKCNPMGYTKEGCRGIDKRHWNSQCRTTQSYVRALTMDSKKRIGWRFIRIDTSCVCTLTIKRGR
**Q.** Which results are given for B1?
**A.** frequency of spontaneous inhibitory postsynaptic currents (sIPSCs) ([1]; Sortilin KO mouse brain slices, 20 ng/ml, n=3 cells): 2.66±1.4 Hz; GABAergic activity (in words) ([1]; 20 ng/ml): restored; GABAergic activity (in words) ([1]; 20 ng/ml, listed as exogenous BDNF): normalizes; also recorded: reversed
